pIC50: −log10 of the molar value.
target: T1, human kinase Mps-1 (Homo sapiens, UniProt P33981); assay: Mps-1 kinase assay (TR-FRET); format: biochemical; conditions: Mps1 IC50 [nM], N-terminally GST-tagged human full length recombinant Mps-1; 10 μM ATP; 1 μM biotinylated peptide substrate; 60 min at 22° C.
T1 construct: N-terminally GST-tagged human full length recombinant Mps-1 kinase; GST (N); purchased Invitrogen, Karslruhe, Germany PV4071
T1 sequence (P33981 1-857): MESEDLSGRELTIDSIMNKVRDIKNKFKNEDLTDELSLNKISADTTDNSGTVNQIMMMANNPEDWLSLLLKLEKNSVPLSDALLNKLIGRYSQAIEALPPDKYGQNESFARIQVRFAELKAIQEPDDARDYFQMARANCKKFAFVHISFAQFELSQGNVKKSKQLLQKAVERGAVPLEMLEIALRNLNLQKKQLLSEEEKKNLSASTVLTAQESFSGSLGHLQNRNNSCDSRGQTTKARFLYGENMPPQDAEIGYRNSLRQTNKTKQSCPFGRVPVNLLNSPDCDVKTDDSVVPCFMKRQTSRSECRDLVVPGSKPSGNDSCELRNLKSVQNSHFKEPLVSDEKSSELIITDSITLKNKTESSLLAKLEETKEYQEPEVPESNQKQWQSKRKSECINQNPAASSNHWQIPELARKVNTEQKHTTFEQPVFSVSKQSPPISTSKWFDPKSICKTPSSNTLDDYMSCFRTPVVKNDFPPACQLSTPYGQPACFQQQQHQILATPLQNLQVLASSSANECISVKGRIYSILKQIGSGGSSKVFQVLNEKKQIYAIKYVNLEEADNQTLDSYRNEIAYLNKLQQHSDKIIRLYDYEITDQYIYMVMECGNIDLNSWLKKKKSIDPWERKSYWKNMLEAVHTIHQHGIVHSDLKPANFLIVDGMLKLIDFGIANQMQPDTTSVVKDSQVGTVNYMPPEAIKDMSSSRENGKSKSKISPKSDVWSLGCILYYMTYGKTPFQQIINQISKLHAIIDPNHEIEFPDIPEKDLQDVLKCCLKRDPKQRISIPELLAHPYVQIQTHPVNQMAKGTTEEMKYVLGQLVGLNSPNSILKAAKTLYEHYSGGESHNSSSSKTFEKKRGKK

| Compound | IC50 [nM] |
| --- | --- |
| Cc1cc(-c2cnc3c(NCc4cnn(C)c4)nccn23)ccc1C(=O)NC1CC1 [Example 7-120, N-cyclopropyl-2-methyl-4-(8-{[(1-methyl-1H-pyrazol-4-yl)methyl]amino}imi-dazo[1,2-a]pyrazin-3-yl)benzamide] | 93.4 |
| Cc1cc(-c2cnc3c(NCc4ccnn4C)nccn23)ccc1C(=O)NC1CC1 [Example 5-5, N-cyclopropyl-2-methyl-4-(8-{[(1-methyl-1H-pyrazol-5-yl)methyl]amino}imi-dazo[1,2-a]pyrazin-3-yl)benzamide] | 67 |
| CC(C)CNc1nccn2c(-c3ccc(C(=O)NC4CC4)cc3F)cnc12 [Example 1-3, N-cyclopropyl-3-fluoro-4-{8-[(2-methylpropyl)amino]imi-dazo[1,2-a]pyrazin-3-yl}benzamide] | 9 |
| O=C(NC1CC1)c1ccc(-c2cnc3c(NCCC(F)(F)F)nccn23)cc1O [Example 7-83, N-cyclopropyl-2-hydroxy-4-{8-[(3,3,3-trifluoropropyl)amino]imi-dazo[1,2-a]pyrazin-3-yl}benzamide] | 22.3 |
| CCOC(C)CNc1nccn2c(-c3ccc(C(=O)NC4CC4)c(C)c3)cnc12 (stereo not shown) [Example 7-121, N-cyclopropyl-4-{8-[(2-ethoxypropyl)amino]imi-dazo[1,2-a]pyrazin-3-yl}-2-methylbenzamide] | 154 |
| O=C(NC1CC1)c1ccc(-c2cnc3c(NCCC(F)(F)F)nccn23)cc1Cl [Example 7-56, 2-chloro-N-cyclopropyl-4-{8-[(3,3,3-trifluoropropyl)amino]imi-dazo[1,2-a]pyrazin-3-yl}benzamide] | 43 |
| O=C(NC1CC1)c1ccc(-c2cnc3c(NCC(O)COc4ccccc4)nccn23)cc1 (stereo not shown) [Example 7-17, N-cyclopropyl-4-{8-[(2-hydroxy-3-phenoxypropyl)amino]imi-dazo[1,2-a]pyrazin-3-yl}benzamide] | 412 |
| Cn1cc(CNc2nccn3c(-c4ccc(C(=O)NC5CC5)c(O)c4)cnc23)cn1 [Example 7-85, N-cyclopropyl-2-hydroxy-4-(8-{[(1-methyl-1H-pyrazol-4-yl)methyl]amino}imi-dazo[1,2-a]pyrazin-3-yl)benzamide] | 105 |
| Cc1cc(-c2cnc3c(NCCCCO)nccn23)ccc1C(=O)NC1CC1 [Example 7-99, N-cyclopropyl-4-{8-[(4-hydroxybutyl)amino]imi-dazo[1,2-a]pyrazin-3-yl}-2-methylbenzamide] | 70.8 |
| O=C(NC1CC1)c1ccc(-c2cnc3c(NCCCN4CCOCC4)nccn23)cc1O [Example 7-71, N-cyclopropyl-2-hydroxy-4-(8-{[3-(morpholin-4-yl)propyl]amino}imi-dazo[1,2-a]pyrazin-3-yl)benzamide] | 304 |
| Cn1ccc(CNc2nccn3c(-c4ccc(C(=O)NC5CC5)c(Cl)c4)cnc23)n1 [Example 7-60, 2-chloro-N-cyclopropyl-4-(8-{[(1-methyl-1H-pyrazol-3-yl)methyl]amino}imi-dazo[1,2-a]pyrazin-3-yl)benzamide] | 767 |
| O=C(NC1CC1)c1ccc(-c2cnc3c(NCC4CCCO4)nccn23)cc1O (stereo not shown) [Example 7-72, N-cyclopropyl-2-hydroxy-4-{8-[(tetrahydrofuran-2-ylmethyl)amino]imi-dazo[1,2-a]pyrazin-3-yl}benzamide] | 36.3 |
| Cc1ccccc1CNc1nccn2c(-c3ccc(C(=O)NC4CC4)cc3)cnc12 [Example 7-15, N-cyclopropyl-4-{8-[(2-methylbenzyl)amino]imi-dazo[1,2-a]pyrazin-3-yl}benzamide] | 88.8 |
| O=C(NC1CC1)c1ccc(-c2cnc3c(NCCCN4CCOCC4)nccn23)cc1 [Example 7-5, N-cyclopropyl-4-(8-{[3-(morpholin-4-yl)propyl]amino}imi-dazo[1,2-a]pyrazin-3-yl)benzamide] | 328 |
| Cc1cc(-c2cnc3c(NCc4ccn[nH]4)nccn23)ccc1C(=O)NC1CC1 [Example 5-3, N-cyclopropyl-2-methyl-4-{8-[(1H-pyrazol-5-ylmethyl)amino]imi-dazo[1,2-a]pyrazin-3-yl}benzamide] | 86.7 |

same assay, conditions: N-terminally GST-tagged human full length recombinant Mps-1; 10 μM ATP; 1 μM biotinylated peptide substrate; 60 min at 22° C.; read-out: Mps1 IC50

| Compound | pIC50 |
| --- | --- |
| O=C(NC1CC1)c1ccc(-c2cnc3c(NCCCN4CCCC4=O)nccn23)cc1Cl [Example 7-35, 2-chloro-N-cyclopropyl-4-(8-{[3-(2-oxopyrrolidin-1-yl)propyl]amino}imidazo[1,2-a]pyrazin-3-yl)benzamide] | 5.71 |
| Cc1cc(-c2cnc3c(NCCCNC(=O)OC(C)(C)C)nccn23)ccc1C(=O)NC1CC1 [Example 7-117, tert-butyl [3-({3-[4-(cyclopropylcarbamoyl)-3-methylphenyl]imidazo[1,2-a]pyrazin-8-yl}amino)propyl]carbamate] | 6.71 |
| NCCCNc1nccn2c(-c3ccc(C(=O)NC4CC4)c(Cl)c3)cnc12 [Example 3-3, 4-{8-[(3-Aminopropyl)amino]imidazo[1,2-a]pyrazin-3-yl}-2-chloro-N-cyclopropylbenzamide] | 5.60 |
| CC(=O)NCCNc1nccn2c(-c3ccc(C(=O)NC4CC4)c(Cl)c3)cnc12 [Example 7-45, 4-(8-{[2-(acetylamino)ethyl]ami-no)imidazo[1,2-a]pyrazin-3-yl)-2-chloro-N-cyclopropylbenzamide] | 5.76 |
| O=C(NC1CC1)c1ccc(-c2cnc3c(NCC4CC4)nccn23)cc1Cl [Example 7-46, 2-chloro-N-cyclopropyl-4-{8-[(cyclopropylmethyl)ami-no]imidazo[1,2-a]pyrazin-3-yl}benzamide] | 7.14 |
| COc1cc(C(=O)NC2CC2)ccc1-c1cnc2c(NCCCN)nccn12 [Example 3-4, 4-{8-[(3-Aminopropyl)amino]imidazo[1,2-a]pyrazin-3-yl}-N-cyclopropyl-3-methoxybenzamide] | 6.38 |
| CC(=O)NCCNc1nccn2c(-c3ccc(C(=O)NC4CC4)cc3)cnc12 [Example 7-16, 4-(8-{[2-(acetylamino)ethyl]ami-no}imidazo[1,2-a]pyrazin-3-yl)-N-cyclopropylbenzamide] | 6.02 |
| CCCCNc1nccn2c(-c3ccc(C(=O)NC4CC4)c(C)c3)cnc12 [Example 7-105, 4-[8-(butylamino)imidazo[1,2-a]pyrazin-3-yl]-N-cyclopropyl-2-methylbenzamide] | 7.73 |
| CCNc1nccn2c(-c3ccc(C(=O)NC4CC4)c(C)c3)cnc12 [Example 7-103, N-cyclopropyl-4-[8-(ethylamino)imidazo[1,2-a]pyrazin-3-yl]-2-methylbenzamide] | 6.84 |
| NS(=O)(=O)c1ccc(CCNc2nccn3c(-c4ccc(C(=O)NC5CC5)cc4)cnc23)cc1 [Example 7-27, N-cyclopropyl-4-(8-{[2-(4-sulfamoylphenyl)ethyl]ami-no}imidazo[1,2-a]pyrazin-3-yl)benzamide] | 7.01 |
| O=C(NC1CC1)c1ccc(-c2cnc3c(NCc4ccccn4)nccn23)cc1Cl [Example 7-47, 2-chloro-N-cyclopropyl-4-{8-[(pyridin-2-ylmethyl)amino]imidazo[1,2-a]pyrazin-3-yl}benzamide] | 5.92 |
| CCNc1nccn2c(-c3ccc(C(=O)NC4CC4)cc3)cnc12 [Example 7-10, N-cyclopropyl-4-[8-(ethylamino)imidazo[1,2-a]pyrazin-3-yl]benzamide] | 6.94 |
| CCCNc1nccn2c(-c3ccc(C(=O)NC4CC4)c(O)c3)cnc12 [Example 7-69, N-cyclopropyl-2-hydroxy-4-[8-(propylamino)imidazo[1,2-a]pyrazin-3-yl]benzamide] | 7.63 |
